The values below come from patent publication US10449128B2, “Fibrous support comprising particles containing a partially water-soluble active agent, particles, and methods for producing said particles” (priority 2014, dated 2019).

This series is described as follows: Solubility in water. Type of series: physicochemical. The source says: For the solid compounds, the solubility is defined as the percentage by weight of the compound in a solution at equilibrium with the solid phase at the above temperature T and a pressure of one atmosphere. For the liquid compounds (or solids in the pure state), the aqueous mixtures of which separate into two or more phases, the solubility taken into account is the percentage by weight of the specified compound in the water-rich liquid phase at equilibrium at the operating temperature (temperature at which said particles are manufactured (as the case may be, between 20 and 95° C.)) and a pressure of one atmosphere.

For the compound `CCCCN(CCC(=O)OCC)C(C)=O` [IR3535, ethyl 3-[acetyl(butyl)amino]propanoate, reference compound], the solubility in water result (at 20° C.) is reported as “approximately 7 % by weight”. As to `OC[C@@H](O)[C@H](O)[C@@H](O)CO` [xylitol], the solubility in water (at 25° C.) was 30 % by weight and the solubility in water (temperature not stated) stood at 39%.
